Assay results reported in patent US20240285773A1, “METHODS OF TREATING MYELODYSPLASTIC SYNDROME AND MONITORING THE TREATMENT” (Geron Corporation, priority 2023, published 2024).
Several values for one entry are separate records, joined by “and”; a condition that tells them apart may be missing. Equal entries are not always repeated. [nps] = N3'→P5' thiophosphoramidate linkage; {Palm} = palmitoyl lipid

Test system: RBC transfusion-dependent patients with IPSS low or intermediate-1 risk MDS
Assay: Phase 3 trial: RBC transfusion independence (RBC-TI)
Assay type: in vivo, human
Details: for TI duration, median: Kaplan-Meier
Experimental: Patients were randomly assigned (based on a computer-generated schedule) in a 2:1 ratio to receive imetelstat or placebo, administered intravenously every 4 weeks until treatment discontinuation; crossover was not allowed. Randomization was stratified by prior RBC transfusion burden (≥4 to ≤6 or >6 units over an 8-week period during 16 weeks prior to randomization) and IPSS risk group (low or intermediate-1 risk). The starting dose of imetelstat was 7.5 mg/kg every four weeks. If a patient developed grade 3 or 4 hematologic and nonhematologic toxicities, dosing was held and, if necessary, reduced (Tables 2-4).
The primary end point was rate of RBC-TI for 8 consecutive weeks or longer. Key secondary end points included rate of 24-week TI, duration of TI, and the rate of hematologic response (hematologic improvement-erythroid [HI-E], based on modified International Working Group [IWG] 2006 criteria, and HI-E per revised IWG 2018). Additional secondary end points included relative change in number of RBC transfusions received by patients, relative change in hemoglobin, and safety. The changes in mutational status and in patient-reported fatigue over time (assessed by the Functional Assessment of Chronic Illness Therapy [FACIT] Fatigue Scale) were exploratory end points. Subgroup analyses were performed including baseline presence or absence of RS, prior RBC transfusion burden (≥4 to ≤6 or >6 RBC units/8-weeks during a 16-week period prior to randomization), and low or intermediate-1 IPSS risk categories. Subgroup analyses were also performed, including baseline mutation status as well as telomerase activity (TA), telomere lengths (TL), and human telomerase reverse transcriptase (hTERT) levels. Peripheral blood hematology, bone marrow evaluation, mutation assessment, and cytogenetic evaluation were performed centrally and responses assessed by an independent review committee (IRC). Rate of 1-year RBC-TI was reported as a post hoc analysis.
The data cutoff date for this primary analysis was 1 year after the last patient was randomized. All the efficacy analyses for primary and key secondary end points were conducted in the intent-to-treat population. […] The percentages of patients with a response for the two treatment groups were compared with a stratified Cochran-Mantel-Haenszel test at a two-sided significance level of 0.05 adjusting for stratification factors, prior RBC transfusion burden, and IPSS risk category low or intermediate-1. Multiplicity was accounted for by a sequential gatekeeping approach for the primary and key secondary end points, which were tested sequentially in the prespecified order of 8-week TI, followed by 24-week TI. Durations of RBC-TI were calculated by Kaplan-Meier method. Safety analyses were conducted in the safety population (all patients who received ≥1 dose of trial medication).
Treatment: In the patients from imetelstat treatment group, imetelstat sodium was administered as a 2-hour IV infusion every 4 weeks at 7.5 mg/kg. Supportive care, including RBC and platelet transfusions, myeloid growth factors (e.g., G-CSF (granulocyte colony stimulating factor)), and iron chelation therapy was administered as needed on study per investigator discretion. Control group received corresponding treatment without imetelstat.
End points and Analysis: • Primary end point: 8-week RBC TI. Proportion of patients without any RBC transfusion for at least eight consecutive weeks since entry to the trial (8-week TI). • Key secondary end points: • 24-week RBC TI; proportion of patients without any RBC transfusion for at least 24 consecutive weeks since entry to the trial (24-week TI). • Duration of TI; • Hematologic improvement-Erythroid (HI-E).
The 8-week RBC-TI rate was the proportion of patients without any RBC transfusion during any consecutive 8 weeks (56 days) starting from Study Day 1 until subsequent anti-cancer therapy, if any. […]

[1] = mutated transcription regulation genes
[2] = poor-prognosis genes mutated at baseline

With “Imetelstat: first-in-class telomerase inhibitor; synthetic lipid-conjugated 13-mer oligonucleotide N3′→P5′-thiophosphoramidate (TAGGGTTAGACAA; all [nps], 5' {Palm}, sugars by position and methylation of C not given here)” the “Difference in median RBC-TI duration vs placebo” value (8-week TI responders) was 38.3 week, the “Hazard ratio, duration of RBC-TI vs placebo” value (8-week TI responders) was 0.23 and the “TI duration, median” value (8-week TI responders) was 51.6 weeks. For the same substance, the “TI duration, median” value (8-week TI responders, listed as imetelstat) was 51.6 weeks and 52 weeks, the “≥8-week TI rate” value (>1 baseline mutation) was 42.7% and the “≥24-week TI rate” value (>1 baseline mutation) was 26.7%. For the same substance, the “≥8-week TI rate” value (>2 baseline mutations) was 45.5%, the “≥24-week TI rate” value (>2 baseline mutations) was 33.3% and the “≥8-week TI rate” value (>3 baseline mutations) was 55.6%. The “≥24-week TI rate” value (>3 baseline mutations) was 33.3%, the “8-week TI response” value (ASXL1 mutations) was 5/18 and the “8-week TI response rate” value (ASXL1 mutations) was “(27.8) %”. For the same substance, the “≥24-week TI rate” value (ASXL1 mutations) was 11.1%, the “8-week TI response rate” value (ASXL1 mutations, listed as imetelstat) was 27.8% and the “≥8-week TI rate” value (CUX1 mutations) was 35.7%. The “≥24-week TI rate” value (CUX1 mutations) was 14.3%, the “≥8-week TI rate” value (DNMT3A mutations) was 31.6% and the “≥24-week TI rate” value (DNMT3A mutations) was 26.3%. The “8-week TI response” value (ETV6 mutations) was 1/2, the “8-week TI response rate” value (ETV6 mutations) was “(50.0) %” and the “8-week TI response rate” value (ETV6 mutations, listed as imetelstat) was 50%. For the same substance, the “8-week RBC-TI rate” value (IPSS intermediate-1 risk) was 40%, the “8-week RBC-TI rate” value (IPSS low risk) was 40% and the “8-week TI rate” value (ITT N=118) was 39.8% and 40%. For the same substance, the “16-week TI rate” value (ITT N=118) was 31.4%, the “16-week TI, patients” value (ITT N=118) was 37 n and the “24-week TI rate” value (ITT N=118) was 28%. The “24-week TI, patients” value (ITT N=118) was 33 n, the “≥1-year TI rate” value (ITT N=118) was 17.8% and 18% and the “≥1-year TI, patients” value (ITT N=118) was 21 n. For the same substance, the “8-week TI, patients” value (ITT N=118, 7.5 mg/kg IV every 4 weeks) was 47 n, the “8-week TI response” value (RUNX1 mutations) was 0/2 and the “8-week TI response rate” value (RUNX1 mutations) was “(0) %”. The “≥8-Week RBC-TI” value (SF3B1 hot-spot A744P) was 100%, the “≥8-Week RBC-TI” value (SF3B1 hot-spot E622D) was 25.0% and the “≥8-Week RBC-TI” value (SF3B1 hot-spot E783K) was 50.0%. The “≥8-Week RBC-TI” value (SF3B1 hot-spot H662Q/N/D/Y) was 58.3%, the “≥8-Week RBC-TI” value (SF3B1 hot-spot K666R/T/Q/N) was 33.3% and the “≥8-Week RBC-TI” value (SF3B1 hot-spot K700E) was 43.9%. The “≥8-Week RBC-TI” value (SF3B1 hot-spot R625C/L/G) was 57.1%, the “≥8-Week RBC-TI” value (SF3B1 hot-spot T663P) was 100% and the “≥8-week TI rate” value (TET2 mutations) was 50%. The “≥24-week TI rate” value (TET2 mutations) was 40%, the “8-week TI response” value (TP53 mutations) was 2/2 and the “8-week TI response rate” value (TP53 mutations) was “(100) %”. For the same substance, the “≥8-week TI rate” value (baseline SF3B1 mutations) was 48.8%, the “≥24-week TI rate” value (baseline SF3B1 mutations) was 35.4% and the “8-week RBC-TI responders with a single continuous RBC-TI period” value (in vivo) was 83%. For the same substance, the “8-week TI responders who went on to achieve 24-week TI” value (in vivo) was “Approximately 70%”, the “≥1-year TI among ≥8-week TI responders” value (in vivo) was 44.7% and 45% and the “≥1-year TI among ≥24-week TI responders” value (in vivo) was 63.6% and 64%. For the same substance, the “≥8-week TI rate” value (mutated RNA spliceosome genes) was 43.8%, the “≥24-week TI rate” value (mutated RNA spliceosome genes) was 30.2% and the “≥8-week TI rate” value (mutated epigenetic modifiers) was 37.7%. For the same substance, the “≥24-week TI rate” value (mutated epigenetic modifiers) was 27.5%, the “≥8-week TI rate” value (mutated receptors/kinases) was 80.0% and the “≥24-week TI rate” value (mutated receptors/kinases) was 80.0%. The “≥8-week TI rate” value [1] was 40.0%, the “≥24-week TI rate” value [1] was 20.0% and the “Median TI duration” value (patients who achieved 24-week TI) was 80.0 weeks. The “8-week RBC-TI rate” value (patients with RS) was 45%, the “24-week RBC-TI rate” value (patients with RS) was 33% and the “Difference vs placebo in TI ≥24 weeks” value (patients with RS) was 28%. For the same substance, the “8-week RBC-TI, patients” value (patients with RS (of 73)) was 33 patients, the “8-week RBC-TI rate” value (patients without RS) was 32% and the “24-week RBC-TI rate” value (patients without RS) was 20%. The “Difference vs placebo in TI ≥24 weeks” value (patients without RS) was 21%, the “8-week RBC-TI, patients” value (patients without RS (of 44)) was 14 patients and the “8-week TI response” value [2] was 7/22. The “8-week TI response rate” value [2] was “(31.8) %”, the “≥24-week TI rate” value [2] was 9.1% and the “8-week TI response rate” value (poor-prognosis genes mutated at baseline, listed as imetelstat) was 31.8%. The “8-week RBC-TI rate” value (prior burden >6 units/8 weeks) was 34%, the “8-week RBC-TI, patients” value (prior burden >6 units/8 weeks (of 56)) was 19 patients and the “8-week RBC-TI rate” value (prior burden ≥4 to ≤6 units/8 weeks) was 45%. For the same substance, the “8-week RBC-TI, patients” value (prior burden ≥4 to ≤6 units/8 weeks (of 62)) was 28 patients and the “Median duration of TI” value (≥1-year TI responders) was 123 weeks.
